Data from publication PMC7178883, “1,2,4-Triazole-based anticonvulsant agents with additional ROS scavenging activity are effective in a model of pharmacoresistant epilepsy” (Journal of Enzyme Inhibition and Medicinal Chemistry, 2020).
Values after ≈ are worked out from the molar mass of the structure shown. Like-named read-outs stand apart in the source and are kept apart here.

Experiments:
DPPH assay = settings: methanol, 30 min, 517 nm
Protocol: Free radical scavenging activity of compounds TP-10, TP-315 and TP-427 was evaluated using DPPH assay. Briefly, 25 µl of 0.2 mM of methanolic solution of DPPH ([…]) was mixed with 175 µl of varying concentrations (0.002–4.5 mg/ml) of the studied compounds dissolved in methanol. Reaction mixtures in the 96-well plate were incubated in the dark at room temperature for 30 min. The absorbance was measured at 517 nm against blank (which consists of all reagents without the investigated compounds) using a microplate reader (Epoch, BioTek Instruments, Inc., Winooski, VT, USA). As a reference, the antioxidant activity of vitamin C was evaluated. Each concentration of the compounds was assayed at least six times. The results were expressed as the IC50 (µg/ml) ± SD calculated using the linear regression analysis.

CUPRAC assay = settings: pH 7.0, 450 nm
Protocol: Cupric reducing antioxidant capacity (CUPRAC) assay was performed according to the method by Apak et al.[20] with slight modifications. The CUPRAC reagent was prepared by mixing equal volume of CuCl2 (10 mM), neocuproine solution (7.5 mM), and acetate buffer (pH = 7.0). Subsequently, 50 µl of TP-10, TP-315, TP-427 (0.002–0.4 mg/ml) and 150 µl of CUPRAC reagent were pipetted into each well of 96-well plate (Nunc, Roskilde, Denmark). After pipetting, the plate was shaken for 5 min and then incubated for 25 min in the dark at room temperature. The absorbance of the solutions was read at 450 nm using a microplate reader (Epoch, BioTek Instruments, Inc., Winooski, VT, USA). At least six tests were performed for each concentration of the investigated compounds. The results were expressed as the IC50 (µg/ml) ± SD.

[1] = design: method as in Barton et al. 25; settings: ref Barton et al. 25, cited from earlier work
[2] = tested on: 6 Hz-induced psychomotor seizures; design: method as in Barton et al. 25; settings: pretreatment time 15 min, ref Barton et al. 25, cited from earlier work

What does the source list for `O=C1O[C@H]([C@@H](O)CO)C(O)=C1O` [Ascorbic acid, reference compound]?
IC50 ± SD, DPPH (DPPH assay): 7.82 ± 0.54 µg/mL (≈ 44.4 µM); IC50 ± SD, CUPRAC (CUPRAC assay): 16.05 ± 0.48 µg/mL (≈ 91.1 µM)

Which TD50 ([1]; pretreatment time 60 min) does the source give for `CC[C@@H](C(N)=O)N1CCCC1=O` [Levetiracetam] here?
The TD50 was greater than 500 mg/kg.

What does the source list for `CCCC(CCC)C(=O)O` [Valproate, valproic acid]?
ED50 ([2]; mouse 6 Hz test): 130.6 mg/kg; Protective index (TD50/ED50) [2]: 2.8; TD50 ([1]; pretreatment time 15 min): 363.3 mg/kg
